Peptide text beside a SMILES is read from it.
What follows are compounds tested against T1, recombinant human urokinase receptor (truncated, soluble; suPAR) (Homo sapiens, UniProt Q03405) (assay: 125I-ATF competition binding on immobilized soluble recombinant human urokinase receptor). Conditions: synthesized peptide; assay performed at 100 pM ATF, 0.3 μg/mL suPAR in 200 μL (starred values); read-out: Affinity.
T1 construct: expressed as a truncated, soluble molecule as described previously for mouse L-cells (Masucci et al., J Biol Chem (1991) 266:8655); made in house
T1 sequence (Q03405 23-299 limits assumed): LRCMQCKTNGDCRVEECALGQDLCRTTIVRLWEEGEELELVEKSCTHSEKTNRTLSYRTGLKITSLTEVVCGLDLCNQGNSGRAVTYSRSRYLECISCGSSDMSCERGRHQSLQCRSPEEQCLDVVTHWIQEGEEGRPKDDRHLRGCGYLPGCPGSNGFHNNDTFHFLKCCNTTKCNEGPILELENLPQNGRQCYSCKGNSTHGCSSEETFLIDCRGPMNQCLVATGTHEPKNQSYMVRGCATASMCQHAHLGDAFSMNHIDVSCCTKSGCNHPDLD

SMILES | Kd [µM]
CC[C@H](C)[C@H](NC(=O)[C@H](CCC(=O)O)NC(=O)[C@H](C)N)C(=O)N[C@@H](CCCCN)C(=O)N[C@H](C(=O)N[C@@H](CC(=O)O)C(=O)N[C@@H](CCC(=O)O)C(=O)N[C@@H](CCCCN)C(=O)N[C@@H](CCSC)C(=O)NCC(=O)N[C@@H](CC(C)C)C(=O)N[C@@H](Cc1c[nH]c2ccccc12)C(=O)N[C@@H](CC(=O)O)C(=O)N[C@@H](CC(C)C)C(=O)N[C@@H](Cc1ccc(O)cc1)C(=O)N[C@@H](CO)C(=O)N[C@@H](CCSC)C(N)=O)[C@@H](C)O (H-AEIKTDEKMGLWDLYSM-NH2) | 25
CC[C@H](C)[C@H](NC(=O)[C@H](CCC(=O)O)NC(=O)[C@H](C)N)C(=O)N[C@@H](CC(C)C)C(=O)N[C@@H](CC(N)=O)C(=O)N[C@@H](Cc1ccccc1)C(=O)N1CCC[C@H]1C(=O)N[C@@H](CC(C)C)C(=O)N[C@@H](Cc1c[nH]c2ccccc12)C(=O)N[C@@H](Cc1c[nH]cn1)C(=O)N[C@@H](CCC(=O)O)C(=O)N1CCC[C@H]1C(=O)N[C@@H](CC(C)C)C(=O)N[C@@H](Cc1c[nH]c2ccccc12)C(=O)N[C@@H](CO)C(=O)N[C@H](C(=O)N[C@@H](CCC(=O)O)C(N)=O)[C@@H](C)O (H-AEILNFPLWHEPLWSTE-NH2) | 15
CC[C@H](C)[C@H](NC(=O)[C@H](CCC(=O)O)NC(=O)[C@H](C)N)C(=O)N[C@@H](CO)C(=O)N[C@@H](Cc1ccccc1)C(=O)N[C@@H](CO)C(=O)N[C@@H](CCC(=O)O)C(=O)N[C@@H](CC(C)C)C(=O)N[C@@H](CCSC)C(=O)N[C@@H](Cc1c[nH]c2ccccc12)C(=O)N[C@@H](CC(C)C)C(=O)N[C@@H](CCCNC(=N)N)C(=O)N[C@@H](CO)C(=O)N[C@H](C(=O)N1CCC[C@H]1C(=O)N[C@@H](C)C(=O)N[C@@H](Cc1ccccc1)C(N)=O)[C@@H](C)O (H-AEISFSELMWLRSTPAF-NH2) | 6
CC[C@H](C)[C@H](NC(=O)[C@H](Cc1c[nH]c2ccccc12)NC(=O)[C@H](CC(C)C)NC(=O)[C@H](CC(=O)O)NC(=O)[C@H](C)NC(=O)[C@H](CCC(=O)O)NC(=O)[C@H](CO)NC(=O)[C@H](CC(C)C)NC(=O)[C@H](CCC(=O)O)NC(=O)[C@H](C)N)C(=O)N[C@H](C(=O)N[C@@H](Cc1c[nH]c2ccccc12)C(=O)N[C@@H](Cc1ccccc1)C(=O)NCC(=O)N[C@@H](CCSC)C(=O)NCC(=O)N[C@@H](CO)C(N)=O)[C@@H](C)O (H-AELSEADLWITWFGMGS-NH2) | 20

Other lines, results leading:

Kd [µM] | SMILES
0.35 | CC(C)C[C@H](NC(=O)[C@H](CO)NC(=O)[C@H](CO)NC(=O)[C@H](Cc1ccc(O)cc1)NC(=O)[C@@H](NC(=O)[C@H](Cc1c[nH]cn1)NC(=O)[C@H](CCC(=O)O)NC(=O)[C@H](C)N)[C@@H](C)O)C(=O)N[C@@H](Cc1c[nH]c2ccccc12)C(=O)N[C@@H](CC(=O)O)C(=O)N[C@H](C(=O)N[C@@H](Cc1ccc(O)cc1)C(=O)N[C@@H](CO)C(=O)N1CCC[C@H]1C(=O)N[C@@H](CC(C)C)C(=O)N[C@@H](C)C(=O)N[C@@H](Cc1ccccc1)C(N)=O)[C@@H](C)O (H-AEHTYSSLWDTYSPLAF-NH2)
0.8 | CSCC[C@H](NC(=O)[C@H](Cc1c[nH]c2ccccc12)NC(=O)[C@H](CC(C)C)NC(=O)[C@H](CC(=O)O)NC(=O)[C@H](CC(C)C)NC(=O)[C@H](CCC(=O)O)NC(=O)[C@H](C)N)C(=O)N[C@@H](CCCNC(=N)N)C(=O)N[C@@H](Cc1c[nH]cn1)C(=O)N[C@@H](Cc1ccc(O)cc1)C(=O)N1CCC[C@H]1C(=O)N[C@@H](CC(C)C)C(=O)N[C@@H](CO)C(=O)N[C@@H](Cc1ccccc1)C(=O)N[C@@H](CO)C(=O)N[C@@H](CC(N)=O)C(=O)N[C@@H](CCCNC(=N)N)C(N)=O (H-AELDLWMRHYPLSFSNR-NH2)
0.015 | CSCC[C@H](NC(=O)[C@@H]1CCCN1C(=O)[C@H](CCC(=O)O)NC(=O)[C@H](C)N)C(=O)N1CCC[C@H]1C(=O)N[C@@H](Cc1c[nH]cn1)C(=O)N[C@@H](CO)C(=O)N[C@@H](CC(C)C)C(=O)N[C@@H](CC(N)=O)C(=O)N[C@@H](Cc1ccccc1)C(=O)N[C@@H](CO)C(=O)N[C@@H](CCC(N)=O)C(=O)N[C@@H](Cc1ccc(O)cc1)C(=O)N[C@@H](CC(C)C)C(=O)N[C@@H](Cc1c[nH]c2ccccc12)C(=O)N[C@@H](Cc1ccc(O)cc1)C(=O)N[C@H](C(N)=O)[C@@H](C)O (H-AEPMPHSLNFSQYLWYT-NH2)

Same assay, conditions: synthesized peptide; corrected to 100 pM ATF, 0.3 μg/mL suPAR conditions, corrections about 3 × from previous assay conditions; read-out: Affinity

SMILES | Kd [µM]
CC(C)C[C@H](NC(=O)[C@H](CCC(=O)O)NC(=O)[C@H](C)N)C(=O)N1CCC[C@H]1C(=O)N[C@@H](CCCNC(=N)N)C(=O)N[C@H](C(=O)N[C@@H](CC(N)=O)C(=O)N1CCC[C@H]1C(=O)N[C@H](C(=O)N[C@H](C(=O)N[C@@H](C)C(=O)N[C@H](C(=O)N[C@@H](CCCCN)C(=O)N[C@@H](CC(N)=O)C(=O)N1CCC[C@H]1C(=O)N[C@@H](CO)C(=O)N[C@@H](Cc1ccccc1)C(N)=O)C(C)C)[C@@H](C)O)C(C)C)[C@@H](C)O (H-AELPRTNPVTAVKNPSF-NH2) | > 50
CC(C)C[C@H](NC(=O)CNC(=O)[C@@H]1CCCN1C(=O)[C@H](CC(N)=O)NC(=O)[C@H](Cc1ccccc1)NC(=O)[C@H](Cc1ccccc1)NC(=O)[C@H](Cc1ccccc1)NC(=O)[C@H](CO)NC(=O)[C@H](Cc1c[nH]c2ccccc12)NC(=O)[C@H](CC(N)=O)NC(=O)[C@H](CC(C)C)NC(=O)[C@H](CC(C)C)NC(=O)[C@H](C)NC(=O)[C@@H]1CCCN1C(=O)[C@H](CCC(=O)O)NC(=O)[C@H](C)N)C(=O)N[C@@H](Cc1c[nH]cn1)C(N)=O (H-AEPALLNWSFFFNPGLH-NH2) | 3
CC(C)C[C@H](NC(=O)[C@H](CCCNC(=N)N)NC(=O)[C@H](CC(C)C)NC(=O)[C@@H]1CCCN1C(=O)[C@H](Cc1ccccc1)NC(=O)[C@H](CCC(N)=O)NC(=O)[C@H](Cc1ccc(O)cc1)NC(=O)[C@H](CC(C)C)NC(=O)[C@H](CCC(N)=O)NC(=O)[C@H](Cc1c[nH]c2ccccc12)NC(=O)[C@H](CC(C)C)NC(=O)[C@@H](NC(=O)[C@@H]1CCCN1C(=O)[C@H](CCC(=O)O)NC(=O)[C@H](C)N)[C@@H](C)O)C(=O)N[C@@H](CO)C(=O)NCC(N)=O (H-AEPTLWQLYQFPLRLSG-NH2) | 5
CC(C)C[C@H](NC(=O)[C@@H](NC(=O)CNC(=O)[C@@H](NC(=O)[C@H](CCC(N)=O)NC(=O)[C@H](CO)NC(=O)[C@H](CCC(=O)O)NC(=O)[C@H](C)N)[C@@H](C)O)[C@@H](C)O)C(=O)N[C@@H](CC(N)=O)C(=O)N[C@H](C(=O)N[C@@H](CC(C)C)C(=O)N[C@@H](Cc1ccccc1)C(=O)N[C@@H](Cc1c[nH]c2ccccc12)C(=O)N[C@@H](CC(N)=O)C(=O)N[C@H](C(=O)N[C@@H](CC(C)C)C(=O)N[C@@H](CCCNC(=N)N)C(N)=O)[C@@H](C)O)[C@@H](C)O (H-AESQTGTLNTLFWNTLR-NH2) | 7

Now from value to compound:

Kd [µM] | SMILES
4 | CSCC[C@H](NC(=O)[C@@H](NC(=O)[C@H](CC(N)=O)NC(=O)[C@H](CO)NC(=O)[C@H](CC(C)C)NC(=O)[C@H](Cc1ccccc1)NC(=O)[C@H](Cc1c[nH]c2ccccc12)NC(=O)[C@H](C)NC(=O)[C@H](CCC(=O)O)NC(=O)[C@H](C)N)[C@@H](C)O)C(=O)N[C@@H](CCCCN)C(=O)N[C@@H](C)C(=O)N[C@@H](CC(C)C)C(=O)N[C@@H](CO)C(=O)N[C@@H](C)C(=O)N[C@@H](CCCNC(=N)N)C(=O)N[C@@H](CC(C)C)C(N)=O (H-AEAWFLSNTMKALSARL-NH2)
5 | CSCC[C@H](NC(=O)[C@H](C)NC(=O)[C@H](CC(C)C)NC(=O)[C@@H]1CCCN1C(=O)[C@@H]1CCCN1C(=O)[C@H](CC(C)C)NC(=O)[C@H](CO)NC(=O)[C@H](Cc1ccc(O)cc1)NC(=O)[C@H](CC(C)C)NC(=O)[C@H](CO)NC(=O)[C@H](Cc1c[nH]c2ccccc12)NC(=O)[C@H](CC(C)C)NC(=O)[C@H](CC(=O)O)NC(=O)[C@H](CC(C)C)NC(=O)[C@@H]1CCCN1C(=O)[C@H](CCC(=O)O)NC(=O)[C@H](C)N)C(N)=O (H-AEPLDLWSLYSLPPLAM-NH2)
> 50 | CC(C)C[C@H](NC(=O)[C@H](CO)NC(=O)[C@H](CC(C)C)NC(=O)[C@@H]1CCCN1C(=O)[C@H](CCC(=O)O)NC(=O)[C@H](C)N)C(=O)N[C@@H](Cc1ccc(O)cc1)C(=O)N[C@@H](CCC(N)=O)C(=O)N[C@@H](CCCCN)C(=O)N[C@@H](CCCCN)C(=O)N[C@H](C(=O)N[C@@H](CC(C)C)C(=O)N[C@@H](CCCNC(=N)N)C(=O)N[C@@H](Cc1c[nH]cn1)C(=O)N[C@@H](Cc1ccccc1)C(=O)N[C@@H](C)C(=O)N[C@@H](CC(N)=O)C(N)=O)[C@@H](C)O (H-AEPLSLYQKKTLRHFAN-NH2)
7 | CC[C@H](C)[C@H](NC(=O)[C@H](CO)NC(=O)[C@@H](NC(=O)[C@H](CC(C)C)NC(=O)[C@@H](NC(=O)[C@@H]1CCCN1C(=O)[C@H](CC(C)C)NC(=O)[C@H](CO)NC(=O)[C@H](CCC(=O)O)NC(=O)[C@H](C)N)[C@@H](C)O)[C@@H](C)O)C(=O)N[C@@H](CC(C)C)C(=O)N[C@@H](Cc1c[nH]c2ccccc12)C(=O)NCC(=O)N[C@@H](CCCCN)C(=O)N[C@@H](CCC(=O)O)C(=O)N[C@@H](CO)C(=O)N[C@H](C(N)=O)C(C)C (H-AESLPTLTSILWGKESV-NH2)
7 | CC[C@H](C)[C@H](NC(=O)[C@H](CCCNC(=N)N)NC(=O)[C@H](Cc1c[nH]c2ccccc12)NC(=O)[C@H](CC(C)C)NC(=O)[C@H](CO)NC(=O)[C@H](CO)NC(=O)[C@H](CCC(=O)O)NC(=O)[C@H](C)N)C(=O)N[C@@H](Cc1ccccc1)C(=O)N[C@@H](CO)C(=O)N1CCC[C@H]1C(=O)N[C@@H](CO)C(=O)N[C@@H](C)C(=O)N[C@@H](CC(C)C)C(=O)N[C@@H](CCSC)C(=O)N[C@@H](CCSC)C(=O)N[C@@H](CO)C(N)=O (H-AESSLWRIFSPSALMMS-NH2)
0.35 | CSCC[C@H](NC(=O)[C@H](CO)NC(=O)[C@@H]1CCCN1C(=O)[C@H](Cc1c[nH]c2ccccc12)NC(=O)[C@H](C)NC(=O)[C@H](Cc1ccc(O)cc1)NC(=O)[C@H](CCCNC(=N)N)NC(=O)[C@@H](NC(=O)[C@H](Cc1c[nH]c2ccccc12)NC(=O)[C@H](CC(C)C)NC(=O)[C@H](CO)NC(=O)[C@H](CO)NC(=O)[C@H](CCC(=O)O)NC(=O)[C@H](C)N)[C@@H](C)O)C(=O)N1CCC[C@H]1C(=O)N[C@@H](CO)C(=O)N[C@@H](Cc1ccc(O)cc1)C(N)=O (H-AESSLWTRYAWPSMPSY-NH2)
